Measurements from patent US6737383B1, “Herbicidal oxadiazolidines” (priority 1999, dated 2004).

How the values were obtained:
surinam grass = test: Test B pre/postemergence surinam grass; assay type: in vivo, Brachiaria decumbens
Source text: (§1) Seeds of bedstraw (Galium aparine), blackgrass (Alopecurus myosuroides), surinam grass (Brachiaria decumbens), cocklebur (Xanthium strumarium), corn (Zea mays), crabgrass (Digitaria sanguinalis), giant foxtail (Setaria faberii), morningglory (Ipomoea hederacea), pigweed (Amaranthus retroflexus), rape (Brassica napus), soybean (Glycine max), sugar beet (Beta vulgaris), velvetleaf (Abutilon theophrasti), wheat (Triticum aestivum), wild oat (Avena fatua) and purple nutsedge (Cyperus rotundus) tubers were planted and treated preemnergence with test chemicals formulated in a non-phytotoxic solvent mixture which included a surfactant.
(§2) At the same time, these crop and weed species were also treated with postemergence applications of test chemicals formulated in the same manner. Plants ranged in height from 2 to 18 cm (1- to 4-leaf stage) for postemergence treatments. Plant species in the flood test consisted of rice (Oryza sativa), smallflower flatsedge (Cyperus difformis), duck salad (Heteranthera limosa) and bamyardgrass (Echinochloa crus-galli) grown to the 2-leaf stage for testing. Treated plants and controls were maintained in a greenhouse for twelve to sixteen days, after which all species were compared to controls and visually evaluated. Plant response ratings, summarized in Table B, are based on a scale of 0 to 10 where 0 is no effect and 10 is complete control. A dash (−) response means no test result.

rape = test: Test B pre/postemergence rape; assay type: in vivo, Brassica napus
Summary of the method: (§3)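 Response is a visual 0-to-10 score relative to untreated plants, where 0 means no effect and 10 means complete control, taken twelve to sixteen days after application. Treatments went onto soil at planting and onto foliage of 1- to 4-leaf plants, using a surfactant-containing non-phytotoxic solvent.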

blackgrass = test: Test B pre/postemergence blackgrass; assay type: in vivo, Alopecurus myosuroides
Summary of the method: as §3

pigweed = test: Test B pre/postemergence pigweed; assay type: in vivo, Amaranthus retroflexus
Source text: as §1, §2

morningglory = test: Test B pre/postemergence morningglory; assay type: in vivo, Ipomoea hederacea
Source text: as §1, §2

sugar beet = test: Test B pre/postemergence sugar beet; assay type: in vivo, Beta vulgaris
Summary of the method: as §3

wheat = test: Test B pre/postemergence wheat; assay type: in vivo, Triticum aestivum
Summary of the method: as §3

soybean = test: Test B pre/postemergence soybean; assay type: in vivo, Glycine max
Summary of the method: as §3

corn = test: Test B pre/postemergence corn; assay type: in vivo, Zea mays
Source text: as §1, §2

giant foxtail = test: Test B pre/postemergence giant foxtail; assay type: in vivo, Setaria faberii
Source text: as §1, §2

cocklebur = test: Test B pre/postemergence cocklebur; assay type: in vivo, Xanthium strumarium
Source text: as §1, §2

wild oat = test: Test B pre/postemergence wild oat; assay type: in vivo, Avena fatua
Summary of the method: as §3

crabgrass = test: Test B pre/postemergence crabgrass; assay type: in vivo, Digitaria sanguinalis
Summary of the method: as §3

purple nutsedge = test: Test B pre/postemergence purple nutsedge; assay type: in vivo, Cyperus rotundus
Summary of the method: as §3

velvetleaf = test: Test B pre/postemergence velvetleaf; assay type: in vivo, Abutilon theophrasti
Source text: as §1, §2

bedstraw = test: Test B pre/postemergence bedstraw; assay type: in vivo, Galium aparine
Source text: as §1, §2

[1] = Postemergence, Rate 62 g/ha, scale of 0 to 10, 0 is no effect, 10 is complete control
[2] = Postemergence, Rate 125 g/ha, scale 0 to 10, 0 is no effect, 10 is complete control
[3] = Postemergence, Rate 500 g/ha, scale 0 to 10, 0 is no effect, 10 is complete control
[4] = Preemergence, Rate 62 g/ha, scale 0 to 10 (0 no effect, 10 complete control)
[5] = Preemergence, Rate 125 g/ha, scale 0 to 10, 0 is no effect, 10 is complete control
[6] = Preemergence, Rate 500 g/ha, scale of 0 to 10 where 0 is no effect and 10 is complete control
[7] = Rate 250 g/ha, Postemergence, scale of 0 to 10 where 0 is no effect and 10 is complete control

CC(C)N(C(=O)n1oc(=O)n(CCC(F)(F)F)c1=O)c1ccc(Cl)cc1 [Compound 554]
3: Plant response rating, B. signalgrass (surinam grass; [3]) | Plant response rating, Rape (rape; [3]) | Rape plant response rating (rape; [6]) | Blackgrass plant response rating (blackgrass; [2]) | Wheat plant response rating (wheat; [4]) | Wheat plant response rating (wheat; [5]) | Plant response rating, Soybean (soybean; [3]) | Soybean plant response rating (0 to 10 scale) (soybean; Preemergence, Rate 250 g/ha) | Soybean plant response rating (soybean; [6]) | Plant response rating, Soybean (soybean; [7]) | Plant response rating, Cocklebur (cocklebur; [3])
1: Morningglory plant response rating (morningglory; [1])
4: Blackgrass plant response rating (blackgrass; [5]) | Blackgrass plant response rating (0 to 10 scale) (blackgrass; Preemergence, Rate 250 g/ha)
2: Morningglory plant response rating (morningglory; [2]) | Plant response rating, Wheat (wheat; [7]) | Soybean plant response rating (soybean; [1]) | Corn plant response rating (corn; [6]) | Giant foxtail plant response rating (giant foxtail; [1]) | Wild oats plant response rating (wild oat; [5]) | Wild oats plant response rating (0 to 10 scale) (wild oat; Preemergence, Rate 250 g/ha) | Plant response rating, Wild oats (wild oat; [7])
7: B. signalgrass plant response rating (surinam grass; [4]) | B. signalgrass plant response rating (surinam grass; [5]) | Blackgrass plant response rating (blackgrass; [6]) | Plant response rating, Blackgrass (blackgrass; [7]) | Plant response rating, Redroot pigweed (pigweed; [7]) | Plant response rating, Morningglory (morningglory; [3]) | Plant response rating, Sugarbeets (sugar beet; [7]) | Plant response rating, Bedstraw (bedstraw; [7])
0: B. signalgrass plant response rating (surinam grass; [1]) | B. signalgrass plant response rating (surinam grass; [2]) | Plant response rating, B. signalgrass (surinam grass; [7]) | Rape plant response rating (rape; [1]) | Rape plant response rating (rape; [2]) | Rape plant response rating (rape; [4]) | Rape plant response rating (rape; [5]) | Rape plant response rating (0 to 10 scale) (rape; Preemergence, Rate 250 g/ha) | Plant response rating, Rape (rape; [7]) | Blackgrass plant response rating (blackgrass; [1]) | Redroot pigweed plant response rating (pigweed; [1]) | Morningglory plant response rating (morningglory; [5]) | Morningglory plant response rating (0 to 10 scale) (morningglory; Preemergence, Rate 250 g/ha) | Morningglory plant response rating (morningglory; [6]) | Sugarbeets plant response rating (sugar beet; [1]) | Sugarbeets plant response rating (sugar beet; [4]) | Sugarbeets plant response rating (sugar beet; [5]) | Sugarbeets plant response rating (0 to 10 scale) (sugar beet; Preemergence, Rate 250 g/ha) | Wheat plant response rating (wheat; [1]) | Soybean plant response rating (soybean; [4]) | Soybean plant response rating (soybean; [5]) | Corn plant response rating (corn; [1]) | Corn plant response rating (corn; [2]) | Plant response rating, Corn (corn; [3]) | Corn plant response rating (corn; [4]) | Corn plant response rating (corn; [5]) | Corn plant response rating (0 to 10 scale) (corn; Preemergence, Rate 250 g/ha) | Plant response rating, Corn (corn; [7]) | Cocklebur plant response rating (cocklebur; [1]) | Cocklebur plant response rating (cocklebur; [2]) | Cocklebur plant response rating (cocklebur; [4]) | Cocklebur plant response rating (cocklebur; [5]) | Cocklebur plant response rating (0 to 10 scale) (cocklebur; Preemergence, Rate 250 g/ha) | Cocklebur plant response rating (cocklebur; [6]) | Plant response rating, Cocklebur (cocklebur; [7]) | Wild oats plant response rating (wild oat; [1]) | Wild oats plant response rating (wild oat; [4]) | Crabgrass plant response rating (crabgrass; [1]) | Nutsedge plant response rating (purple nutsedge; [1]) | Nutsedge plant response rating (purple nutsedge; [2]) | Plant response rating, Nutsedge (purple nutsedge; [3]) | Nutsedge plant response rating (purple nutsedge; [4]) | Nutsedge plant response rating (purple nutsedge; [5]) | Nutsedge plant response rating (0 to 10 scale) (purple nutsedge; Preemergence, Rate 250 g/ha) | Nutsedge plant response rating (purple nutsedge; [6]) | Plant response rating, Nutsedge (purple nutsedge; [7]) | Velvetleaf plant response rating (velvetleaf; [1]) | Plant response rating, Velvetleaf (velvetleaf; [3]) | Velvetleaf plant response rating (velvetleaf; [4]) | Velvetleaf plant response rating (velvetleaf; [5]) | Velvetleaf plant response rating (0 to 10 scale) (velvetleaf; Preemergence, Rate 250 g/ha) | Velvetleaf plant response rating (velvetleaf; [6]) | Plant response rating, Velvetleaf (velvetleaf; [7]) | Bedstraw plant response rating (bedstraw; [4]) | Bedstraw plant response rating (bedstraw; [5]) | Bedstraw plant response rating (0 to 10 scale) (bedstraw; Preemergence, Rate 250 g/ha) | Bedstraw plant response rating (bedstraw; [6])
10: B. signalgrass plant response rating (surinam grass; [6]) | Redroot pigweed plant response rating (pigweed; [6]) | Giant foxtail plant response rating (giant foxtail; [6]) | Crabgrass plant response rating (crabgrass; [5]) | Crabgrass plant response rating (crabgrass; [6])
8: Plant response rating, Giant foxtail (giant foxtail; [3]) | Plant response rating, Giant foxtail (giant foxtail; [7])
9: Redroot pigweed plant response rating (pigweed; [4]) | Giant foxtail plant response rating (giant foxtail; [4]) | Giant foxtail plant response rating (giant foxtail; [5]) | Giant foxtail plant response rating (0 to 10 scale) (giant foxtail; Preemergence, Rate 250 g/ha) | Wild oats plant response rating (wild oat; [6]) | Plant response rating, Crabgrass (crabgrass; [3]) | Crabgrass plant response rating (crabgrass; [4]) | Plant response rating, Crabgrass (crabgrass; [7]) | Plant response rating, Bedstraw (bedstraw; [3])
5: Plant response rating, Morningglory (morningglory; [7]) | Bedstraw plant response rating (bedstraw; [1]) | Bedstraw plant response rating (bedstraw; [2])
6: B. signalgrass plant response rating (0 to 10 scale, 0 is no effect, 10 is complete control) (surinam grass; Preemergence, Rate 250 g/ha) | Sugarbeets plant response rating (sugar beet; [6]) | Wheat plant response rating (wheat; [6]) | Giant foxtail plant response rating (giant foxtail; [2])
